Data as given in the NIST ThermoML archive (doi:10.1016/j.tca.2009.12.017).
± gives the expanded uncertainty stated by the source.

Settings: Crystal; Boetius hot stage apparatus

Compound `CNC(=O)[C@H](Cc1cnc[nH]1)NC(C)=O` [N-acetyl-N'-methyl-L-alpha-histidinamide] has a Normal melting temperature of -11 ± 6 °C.
